Data on two molecules can be found in patent US9771344B2, “Peloruside analogs” (Universiteit Gent, priority 2013, dated 2017).

Assay [1] deals with cytoplasmic microtubule complex. The assay can be described thus: Immunocytochemistry of the cytoplasmic microtubule complex. It counts as cell-based, rat kangaroo (Potorous tridactylus). Particulars: PtK2 cells. Here is the method:
The PtK2 cell line was established from the kidney tissue of an adult male rat kangaroo (Potorous tridactylus).
Cells were seeded on glass coverslips in culture medium, supplemented with fetal bovine serum, at an initial concentration of 10,000/coverslip. After incubation overnight to allow spreading, treatments started at 37° C. for 1, 4 or 24 h. Cultures were then rinsed with phosphate-buffered saline and fixed in methanol at −20° C. The primary rabbit anti-tubulin polyclonal antibody was a gift from Dr. De Brabander (Janssen Life Sciences, Beerse, Belgium).
PtK2 cells were treated with DMSO (solvent control), JC168, or paclitaxel (positive control). After 1 hour, 4 hours, and 24 hours of incubation, cells were fixed and stained for the cytoplasmic microtubule complex.

The subject of assay [2] is MO4 cells. Description: Sulforhodamine B assay (cell growth). It counts as cell-based, murine. Conditions: 4 days. On the procedure: MO4 cells were treated with dimethyl sulfoxide (DMSO, solvent control), 0.001, 0.01, 0.1 or 1 μg/ml JC168 for 4 days. After said 4 days of incubation the cells were fixed and stained with sulforhodamine B to determine cellular protein content. Excess dye was removed by washing. Protein-bound dye was dissolved and optical density was measured. Data represent optical density (OD) as a percentage of solvent control (mean and standard deviation, n=6).
FIG. 2: Comparison of JC168 and paclitaxel to inhibit cell growth. MO4 cells were treated with dimethyl sulfoxide (DMSO, solvent control), 1 μg/ml JC168 or 1 μg/ml paclitaxel for 4 days. After said 4 days of incubation the cells were fixed and stained with sulforhodamine B to determine cellular protein content. Excess dye was removed by washing. Protein-bound dye was dissolved and optical density was measured. Data represent optical density (OD) as a percentage of solvent control (mean and standard deviation, n=6). […]
The sulforhodamine B (SRB) assay was used for cell density determination. […] The method allows a large number of samples to be tested within a few days, and is a quantitative assay for growth inhibition by microtubule inhibitors. […] The protein-bound dye was dissolved in 10 mM Tris base solution for OD determination at 510 nm using a microplate reader. […]
(Sulforhodamine B stains cellular protein and so reports cell mass.)

In assay [3] the test system is MO4 cells. The assay can be described thus: MTT assay (MTT conversion). Particulars: 4 days. It counts as cell-based, murine. On the procedure:
FIG. 3: JC168 inhibits MTT conversion. MO4 cells were treated with dimethyl sulfoxide (DMSO, solvent control), 0.001, 0.01, 0.1 or 1 μg/ml JC168 for 4 days. Then, 3-(4,5-dimethylthiazol-2-yl)-2,5-diphenyltetrazolium bromide was added and the cultures were incubated to allow the cells to reduce the MTT into formazan. The formazan was dissolved and optical density was measured. Data represent optical density (OD) as a percentage of solvent control (mean and standard deviation, n=6).
FIG. 4: Comparison of JC168 and paclitaxel to inhibit MTT conversion. MO4 cells were treated with dimethyl sulfoxide (DMSO, solvent control), 1 μg/ml JC168 or 1 μg/ml paclitaxel for 4 days. Then, 3-(4,5-dimethylthiazol-2-yl)-2,5-diphenyltetrazolium bromide was added and the cultures were incubated to allow the cells to reduce the MTT into formazan. The formazan was dissolved and optical density was measured. Data represent optical density (OD) as a percentage of solvent control (mean and standard deviation, n=6).
As test cells for functional assays MO4 cells were used, which are murine virally transformed fibrosarcoma-like cells. […]
MTT (3-(4,5-Dimethylthiazol-2-yl)-2,5-diphenyltetrazolium bromide, a yellow tetrazole), was reduced to purple formazan in living cells. […] The absorbance of this colored solution was quantified by measuring it at a wavelength between 500 and 600 nm by a spectrophotometer. […]
On the technique in general: Tetrazolium dyes change colour on reduction, which living cells bring about.

The test system of the next assay is MDA-MB231 GFP-LUC cells. Description: Collagen type I invasion assay. It counts as cell-based, human. Conditions: for Histological sections of the collagen gels: cells on top of the gel: after 14 days. On the procedure: Invading cells were counted by phase-contrast microscopy as cells with extensions penetrating into the gel. (A) Invasion was calculated as the percentage of invading cells per high powered field (mean and standard deviation, n=10). Microphotographs of representative cultures of MDA-MB231 GFP-LUC cells treated with DMSO (B), 1 μg/ml JC168 (C), and 1 μg/ml paclitaxel (D) after 24 hours of incubation on top of a collagen type I gel. Scalebar=100 μm.
These cells are derived from a human mammary carcinoma and were stably transfected with green fluorescent protein (GFP) and luciferase (LUC).
Tissue invasion requires infiltration into an extracellular matrix (ECM) dominated by networks of collagen type I. The invasion model, presented here, consists of native, acid-extracted rat tail collagen type I containing nonhelical telopeptides situated at the N- and C-terminal ends. These telopeptides play an important role in intermolecular covalent cross-links necessary for a gel architecture presenting itself as a structural barrier to cancer cell traffic. Collagen type I solution was prepared with a final concentration of 1 mg ml^−1 collagen type I by mixing the following pre-cooled (stored at 4° C.) components: 4 volumes collagen type I (stock is 3.49 mg ml^−1), 5 volumes of calcium- and magnesium-free Hank's balanced salt solution (CMF-HBSS), 1 volume of minimal essential medium (MEM) (10×), 1 volume of 0.25 M NaHCO3, 2.65 volumes of standard medium and 0.3 volumes of 1M NaOH to make the solution alkaline. The collagen type I solution was gently poured into the wells of a 6-well plate. The experimental set-up was placed at 37° C. in a humidified atmosphere with 10% CO2 in air for at least 1 h. After gelification, a cell suspension of MDA-MB231 GFP-LUC cells was added on top of the collagen gels and incubated for 24 hours. […] Invasion is calculated as the percentage of invading cells per high powered field and is expressed as the mean and standard deviation. The number of examined fields is 10. The sections were stained with hematoxylin-eosin.
MDA-MB231 GFP-LUC cells were treated with DMSO (solvent control), JC168, or paclitaxel (positive control) or left untreated (control) and incubated on a collagen type I gel. After 24 hours of incubation, invasion into the collagen was evaluated by phase-contrast microscopy. […] From this we can conclude that the number of invaded cells is clearly lower in the treated cultures.

The test system of assay [4] is MO4 cells. The assay can be described thus: Chick heart invasion assay. It counts as cell-based, murine. Particulars: 1 μg/ml, invasion of MO4 cells into embryonic chick heart. On the procedure:
Aggregates of MO4 cells were prepared by diluting single dissociated cells to appropriate concentrations in 6 ml complete growth medium in a 50 ml Erlenmeyer flask and incubated on a Gyrotory shaker at 37° C. and 70 rpm in a humidified atmosphere with 10% CO2 in air for 72 h. The aggregates were confronted overnight on top of semi-solid agar medium with precultured heart fragments (PHF, diameter 0.4 mm) prepared from 9-day-old chick embryos. Suspension organotypic cultures were incubated in 1.5 ml culture medium with or without a test compound on a Gyrotory shaker at 120 rpm under a controlled atmosphere containing 10% CO2 in air. Cells were fixed in Bouin-Hollande's solution and embedded in paraffin for histologic determination of cell invasiveness. Consecutive sections were stained with haematoxylin-eosin. Invasion is defined as the progressive occupation of PHF by the confronting test cells. Microscopic analysis of all consecutive sections from a confronting culture allowed the reconstruction of the interaction between the cell aggregate and the PHF in three dimensions.
The observation of different patterns of interaction has led to the following scale:
Grade I and II are observed with non-invasive cell populations, while grade III an IV are typical of invasion. To evaluate progression with time, histological analysis was done on confronting cultures fixed after different incubation periods.
MO4 cells were confronted with precultured heart fragments and the organotypic cultures were incubated in suspension in the presence of DMSO (solvent control), JC168 or paclitaxel (positive control) for 2-4 days.

Consider `CC[C@H](/C=C(/C)[C@@H]1C[C@@H](OC)C[C@H](O)C(C)(C)c2cccc(c2)C[C@@H](O)C(O)C(=O)O1)CO` (stereo partly drawn) [JC168, (1′Z,3R,3′R,4S,7S,9S,11S)-3,4,11-Trihydroxy-7-(3′-hydroxymethyl-1′-methylpent-1′-enyl)-9-methoxy-12,12-dimethyl-6-oxabicyclo[11.3.1]heptadeca-1(17),13,15-trien-5-one], for which, in assay [1] (0.1 μg/ml), the “Effect on the cytoplasmic microtubule complex, 1 hour” value (“Effect … 1 hour” below) was “disturbed”; the “Effect on the cytoplasmic microtubule complex, 4 hours” value is listed as “disturbed”; the “Effect on the cytoplasmic microtubule complex, 24 hours” value (“Effect … 24 hours” below) is recorded as “disturbed”. In addition, in assay [1] (1.0 μg/ml), the “Effect … 1 hour” value was “disturbed”; the “Effect on the cytoplasmic microtubule complex, 4 hours” value is “disturbed”; the “Effect … 24 hours” value is “disturbed”. Also, the “Potency to inhibit cell growth as compared to paclitaxel” value in the assay with MO4 cells [2] (1 μg/ml each, FIG. 2) is given as 5%. Further, the “Effect on cell growth (sulforhodamine B, words)” value with MO4 cells [2] (0.001-1 μg/ml, FIG. 1) is recorded as “inhibits cell growth”. Besides, in the assay on MO4 cells [3] (1 μg/ml each, FIG. 4), the “Potency to inhibit MTT conversion as compared to paclitaxel” value was 3%. In addition, the “Effect on MTT conversion into formazan” value in the assay with MO4 cells [3] (0.001-1 μg/ml, FIG. 3) is given as “inhibits the conversion”. Moreover, the “Potency to inhibit invasion in collagen type I as compared to paclitaxel” value in the assay with MDA-MB231 GFP-LUC cells (MDA-MB231 GFP-LUC cells, 24 hours) amounted to 89%. Also, the “Effect on invasion into collagen type I” value with MDA-MB231 GFP-LUC cells (MDA-MB231 GFP-LUC cells, 24 hours, FIG. 5) was “inhibits invasion”. Further, the “Histological sections of the collagen gels: cells on top of the gel” value in the assay with MDA-MB231 GFP-LUC cells was “low number of cells on top of the gel”. Besides, the “Number of organotypic cultures classified Grade I” value in the assay with MO4 cells [4] (incubation 2 days) is “n = 5”. The “Number of organotypic cultures classified Grade II” value in the assay on MO4 cells [4] (incubation 3 days) is “n = 5”. In the assay on MO4 cells [4] (incubation 4 days), the “Number of organotypic cultures classified Grade II” value is listed as “n = 3” and the “Number of organotypic cultures classified Grade III” value is listed as “n = 3”.
For the molecule `CC(=O)O[C@H]1C(=O)[C@@]2(C)[C@H]([C@H](OC(=O)c3ccccc3)[C@]3(O)C[C@H](OC(=O)[C@H](O)[C@@H](NC(=O)c4ccccc4)c4ccccc4)C(C)=C1C3(C)C)[C@]1(OC(C)=O)CO[C@@H]1C[C@@H]2O` [paclitaxel, reference compound], in assay [1] (0.1 μg/ml), the “Effect … 1 hour” value is on record as “normal”; the “Effect on the cytoplasmic microtubule complex, 4 hours” value is listed as “disturbed”; the “Effect … 24 hours” value is on record as “disturbed”. For the same molecule, in assay [1] (1.0 μg/ml), the “Effect … 1 hour” value is given as “disturbed”; the “Effect on the cytoplasmic microtubule complex, 4 hours” value was “disturbed”; the “Effect … 24 hours” value is “disturbed”. Moreover, the “Histological sections of the collagen gels: cells on top of the gel” value with MDA-MB231 GFP-LUC cells is “low number of cells on top of the gel”. For the same molecule, the “Number of organotypic cultures classified Grade II” value in the assay on MO4 cells [4] (incubation 4 days) was “n = 5”.
